Columns and labels:
[1] = Alkaline treatment of LOs (base-catalysed Met epimerization, HPLC); assay type: physicochemical; settings: LOs 1, 4 and 7 mixture treated with KOH in 70% aqueous ethanol, HPLC at 214 nm and 280 nm
Procedure: HPLC data was collected at a wavelength range of 190–300 nm using Agilent 1200 series HPLC system equipped with an autosampler, quaternary pump, diode array detector and degasser. Chromatographic separations for Marfey's derivatives were conducted on 100 mm × 4.6 mm i.d., reversed-phase Chromolith® Performance RP-18e columns (Merck KGaA, Darmstadt, Germany). The mobile phase consisted of H2O and 0.05 M triethyl phosphate buffer at a flow rate of 2 mL min^−1 (85 : 15 for 3 min, 85 : 15 to 60 : 40 in 18 min, to 10 : 90 in 0.5 min, 10 : 90 for 1 min, to 85 : 15 in 0.5 min, to equilibration for 2 min) with column compartment at 30 °C. Chromolith® High Resolution RP-18e columns 50 mm × 4.6 mm i.d. (Merck KGaA, Darmstadt, Germany) equipped with in-line filters were used for LO analytical characterization. H2O and CH3CN linear HPLC gradient with a flow rate of 2 mL min^−1 (50 : 50 to 20 : 80 for 1.8 min, 20 : 80 to 10 : 90 in 0.1 min, to 50 : 50 in 0.1 min, to equilibration for 1 min), and a column compartment at 32 °C was used.
LO (1 g) was dissolved in 70% aqueous ethanol (2.5 mL) and KOH (0.25 g) was added. The mixture was sonicated for 30 min. A portion of the mixture (∼1 mL) was transferred to a glass vial and extracted with EtOAc (∼3 mL) then settled. The upper EtOAc phase was transferred by pipette to a clean tube and dried under airflow. […]

[2] = tested on: MDA-MB-231 cells; test: CytoTox Green cytotoxicity assay, MDA-MB-231; assay type: cell-based, Human; settings: 100 μM, 48 h, 8000 cells per well, DMSO 2% as negative control
Procedure: A Forma Series II 3110 Water-Jacketed CO2 Incubator (Thermo Fisher Scientific) containing T-75 cell culture flasks at 37 °C under a humidified atmosphere was used to culture human breast cancer cell lines MDA-MB-231 and Sk-Br-3. 10% fetal bovine serum (FBS) and 1% penicillin under 5% CO2 were used to supplement McCoy's 5A Modified Medium to culture Sk-Br-3 cell line, and 10% FBS and 1% penicillin under 0% CO2 were used to supplement Leibovitz's L-15 Medium to culture MDA-MB-231 cell line. Each cell line's culture medium was changed every 2–3 days.
MDA-MB-231 and Sk-Br-3 cells were plated in 96-well plates at 8000 cells per well (final culture volume – 300 μL) and allowed to grow overnight for attachment before being treated with LO. LO stock solutions were prepared in DMSO at various concentrations of 200 μM; 100 μM; 50 μM, 25 μM, 12.5 μM. CytoTox Green reagent was added to wells during treatments. DMSO treated cells (final concentration at 2%) were used as a negative control. Following the manufacturer's recommended protocols, LOs cytotoxicity was continuously monitored at 24 h intervals for 120 h and calculated using the equation.Cytotoxicity (%) = [OD (experiment) − OD (vehicle control)]/[OD (maximum cell death) − OD (vehicle control)] × 100%

| Substance | new HPLC peak after KOH treatment (in words) [1] | % cytotoxicity [2] [%] |
| --- | --- | --- |
| [1−9-NαC]-linusorb B3 [LO 1] | no extra peak was observed |  |
| [1−9-NαC], DMet-linusorb B2 [LO 8] |  | ~100 |
| [1−9-NαC]-linusorb B2 [LO 2] |  | ~40 |

Reference: article PMC9034004, “Methionine epimerization in cyclic peptides” (RSC Advances, 2021)
